The text below walks through data of patent publication US20060188867A1, “Method of cryopreserving cells and tissues by liposomal delivery of sugars to enhance post-thaw viability” (Canadian Blood Services, priority 2005, published 2006).

This data set deals with red blood cells (RBCs). Description: flow cytometry of liposomal loading of carboxyfluorescein/trehalose into red blood cells, FIGS. 1A-1E. Type of data set: cell-based, human. Particulars: no liposomes (FIG. 1C). How it is done: However, it should be noted that the ratio of DPPC to cholesterol can, of course, be varied, as will be appreciated by those of ordinary skill in the art. The liposomes also have an aqueous core that can be composed of, by way of example only, 3.3 mM NaCl, 40 mM KCl, 1.7 mM glucose, 6.7 mM HEPES, 200 mM sucrose or trehalose and 100 μM 5(6)-carboxyfluorescein (CF). As it is known in the art, 5(6)-CF is an impermeable fluorescent marker with a molecular weight similar to that of sucrose and trehalose. This marker can be used to detect the liposome population using flow cytometry and is thus a useful and reliable indicator of loading efficiency. A single uniform population and intense FITC (Fluorescein isothiocyanate) peak verify liposome homogeneity and entrapment of the marker in the aqueous core.
In order to validate the methods described herein, human red blood cells and TF-1 (CRL2003, ATTC) cells were used as […] model systems. The mechanism of liposomal interaction with the cell is believed to be cell-type dependent and is believed to involve processes of adsorption, fusion and endocytosis.
FIGS. 1A to 1E are flow cytometry plots used to examine the effects of loading trehalose into red blood cells (RBCs). Liposomes composed of DPPC/cholesterol in the ratio of 70:30 were constructed so as to have a concentration of 0.29M trehalose inside and outside. […]
(In general: Flow cytometry measures light scatter and fluorescence of single cells or particles in a stream.)

Turning to 5(6)-carboxyfluorescein [CF], the “permeation of free CF into RBCs (fluorescence of RBCs in CF-containing media)” value is recorded as “cannot cross into RBCs”.
